Entries after “also recorded” stand apart in the source; their conditions may differ.
What was measured:
CB1 receptors = CB1 receptors (Homo sapiens, UniProt P21554); details: CB1 receptors located in the CNS; cited from earlier work
[1] = test system: brain-infiltrating CD4+ T cells; assay: miRNA microarray of CD4+ T cells isolated from the brain of EAE mice; type: in vivo, C57BL/6 mice
Protocol: (§1) EAE is a model for human Multiple Sclerosis. EAE was induced in 6-8 weeks old Female C57BL/6 mice through subcutaneous immunization with 100 μl of 150 μg MOG35-55 peptide (PolyPeptide Laboratories San Diego, CA, USA) along with heat killed Mycobacterium Tuberculosis 8 mg/ml (strain H37Ra) (BD, Franklin Lakes, NJ, USA), emulsified in PBS and complete Freund's adjuvant (CFA) (Fisher, Hampton, NH, USA). Mice also received two subsequent doses of 200 and 400 ng of pertussis toxin intraperitoneally on day 0 and 2, respectively (List Biological Laboratories, Campbell, CA, USA). Beginning on day 10, mice received a 100 μL intraperitoneal injection containing either a vehicle (sterile corn oil (CO) with 2% DMSO v/v) or a treatment suspension (10 mg/kg delta-8-THC in sterile CO with 2% DMSO v/v) every day till the end of the experiment. The control mice received the appropriate vehicle. On the appearance of the clinical symptoms, the animals were provided with food and water (Boost and Hydrogel) in the cage bedding to ensure their access to essential nutrients. During the experiment, animals were weighed for weight change and scored for disease progression on a daily basis. The mean body weight and clinical scores were calculated daily for each group. Clinical scores were recorded as follows: 0, healthy; 1, tail atony; 2, partial paralysis of hind limbs; 3, complete paralysis of hind limbs in combination with partial front limb paralysis; 4, tetraplegia; 5, moribund.
(§2) Mononuclear cells isolated from brain were labeled with Phycoerythrin-conjugated (PE-Conjugated) anti-CD4 antibody purchased from Biolegends. […]
(§3) To analyze gene expression, total RNA was purified from brain infiltrating CD4^+ cells using miRNeasy micro kit according to the manufacturer's instructions. RNA purity and concentration were measured by using Nanodrop spectrophotometer from Thermoscientific. […] The results obtained from qRT-PCR were calculated using delta delta Ct (ΔΔCt) method.

[2] = test system: Experimental Autoimmune Encephalomyelitis (EAE); assay: Experimental Autoimmune Encephalomyelitis (EAE) model: clinical score and body weight; type: in vivo; details: EAE C57BL/6 mice, 10 mg/kg intraperitoneally every day from day 10, vs vehicle
Protocol: 6-8 weeks old Female C57BL/6 mice were purchased from Jackson Laboratory (Bar Harbor, ME). Animals colonies were maintained in accordance with Federal regulations and guidelines set by the animal facility of the University of South Carolina Institutional Animal Care and Use Committee (IACUC). Mice were housed in a single room under controlled temperature (22° C.), identical SPF, 50% relative humidity, and photoperiods (12:12 hours light/dark cycle). Animals were allowed unlimited access (ad libitum feeding) to autoclaved drinking water and a standard irradiated soy-free mouse chow. The health of the animals was monitored daily by the veterinarian in the animal facility.
as §1, with “Beginning on day 10, mice received a 100 μL intraperitoneal injection containing either a vehicle (sterile corn oil (CO) with 2% DMSO v/v) or a treatment suspension (10 mg/kg delta-8-THC in sterile CO with 2% DMSO v/v) every day till the end of the experiment. The control mice received the appropriate vehicle. On the appearance of the clinical symptoms, the animals were provided with food and water (Boost and Hydrogel) in the cage bedding to ensure their access to essential nutrients.” left out
The data were expressed as mean±SEM calculated using GraphPad Prism 9 (GraphPad Inc, La Jolla, CA) and the data sets for all experiments represent three to four experimental replicates per group. […]

[3] = test system: brain infiltrating mononuclear cells; assay: miRNA sequencing (miRNASeq) of brain infiltrating mononuclear cells of EAE mice
[4] = test system: immune cells from brain and spleens; assay: Flow cytometry of immune cells from brain and spleens of EAE mice; type: in vivo, C57BL/6 mice
Protocol: as §1
BD FACSCelesta flow cytometer was used to quantify the phenotypes of immune cells from brain and spleens. Cells were stained with fluorescently labeled monoclonal antibodies purchased from Biolegend (San Diego, CA). The data obtained from flow cytometer was analyzed on FlowJo software.

[5] = test system: brain-infiltrating CD4+ T cells; assay: qRT-PCR of brain-infiltrating CD4+ T cells from EAE mice; type: in vivo, C57BL/6 mice
Protocol: as §1, §2, §3

[6] = CD4+ T cells isolated from the brain of EAE mice, miRNA microarray

CB1 receptors, sequence (P21554 whole entry): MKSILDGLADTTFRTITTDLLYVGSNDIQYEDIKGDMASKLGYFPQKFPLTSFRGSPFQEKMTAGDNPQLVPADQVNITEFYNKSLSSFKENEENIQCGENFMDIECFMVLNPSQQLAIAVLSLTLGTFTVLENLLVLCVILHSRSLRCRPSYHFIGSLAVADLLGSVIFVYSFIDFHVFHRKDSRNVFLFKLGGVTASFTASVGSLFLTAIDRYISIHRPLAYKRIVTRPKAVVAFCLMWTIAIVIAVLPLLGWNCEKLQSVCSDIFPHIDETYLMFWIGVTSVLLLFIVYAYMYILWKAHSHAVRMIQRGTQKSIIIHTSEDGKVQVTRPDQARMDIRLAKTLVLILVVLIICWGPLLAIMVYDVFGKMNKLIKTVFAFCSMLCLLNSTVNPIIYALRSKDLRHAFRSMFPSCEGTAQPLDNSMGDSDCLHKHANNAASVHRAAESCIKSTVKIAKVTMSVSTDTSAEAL

CCCCCc1cc(O)c2c(c1)OC(C)(C)[C@@H]1CC=C(C)C[C@@H]21 [Δ-8-THC, delta-8-tetrahydrocannabinol]
activity at CB1 receptors (CB1 receptors): partial agonist
expression of miR-21, miR-27a, miR-29a, miR-30a, miR-31, miR-146a, miR-155, and miR-326 [1, 6]: downregulated
expression of miR-let7, miR-130a, miR-181a, miR-328a and miR-448 [1, 6]: upregulating
miR expression profile ([1]; brain-infiltrating CD4+ T cells from EAE mice, compared to the controls): distinct signature profile
body weight [2]: increase; also recorded: attenuated
disease clinical scores / paralysis [2]: highly significant reduction; also recorded: attenuated; also recorded: decreased levels of paralysis
body weight ([2]; listed as Δ8-THC): gain weight
miRNA expression (miRNASeq) [3]: regulates a distinct set of miRNAs compared to Δ-9-THC; also recorded: unique miRNA signature profile distinct from Δ-9-THC; also recorded: differential expression of miRNAs
IL-17+ CD4+ T cells in the brains ([4]; brain): decrease
RORγt+ (Th17) cells in the brains ([4]; brain): decrease
Th1 cells (T-bet) in the brain ([4]; brain, expression of T-bet): not in the brain; also recorded: decrease
IL-17+ CD4+ T cells in the brains ([4]; brain, listed as Δ8-THC): decreased
RORγt+ (Th17) cells in the brains ([4]; brain, listed as Δ8-THC): decreased
percentage of macrophages in the brain ([4]; brain-infiltrating pro-inflammatory macrophages): decreased
percentage of CD4+ T cells in the brain ([4]; flow cytometry, brain): decrease
percentage of CD4+ T cells in the spleens ([4]; flow cytometry, spleen): decrease
IL-17+ CD4+ T cells in the spleens ([4]; spleen): decreased
RORγt+ (Th17) cells in the spleens ([4]; spleen): decrease
Th1 cells expressing IFN-gamma in the spleens ([4]; spleen): decrease
percentage of macrophages in the spleens ([4]; spleen): decrease
Th1 cells (T-bet) in the spleen ([4]; spleen, expression of T-bet): decrease
RORγt+ (Th17) cells in the spleens ([4]; spleen, listed as Δ8-THC): decreased
Foxp3 expression [5]: increase
IL-10 expression [5]: increased
TGF-β expression [5]: increased
